Data: the METLIN SMRT retention time set (Domingo-Almenara et al. 2019)

Test: gradient 5% acetonitrile 3 min, to 50% in 2 min, to 85% in 15 min, held 3 min, 100 µL/min
Settings: column: Zorbax Extend-C18 2.1 x 50 mm; eluents: water / acetonitrile, 0.1% formic acid
How it was run: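 Pure standards were run in mixtures of ~100 molecules by HPLC coupled to a quadrupole time-of-flight mass spectrometer. The column was a Zorbax Extend-C18 (2.1 × 50 mm, 1.8 μm) at 100 μL/min, with water and acetonitrile each containing 0.1% formic acid, in positive and negative ionization mode. Dead and dwell volumes were 40 μL and 900 μL. Retention time was taken from computationally picked adduct peaks, each manually inspected, with data collected over 3 months.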

Structure (SMILES)	RP-LC retention time
CN[C@H]1CN(c2ccc3c(=O)c(C(=O)O)cn(-c4nccs4)c3n2)C[C@@H]1OC	599 s
O=C(Nc1ccc(Cl)cc1)C1CCN(C(=O)c2ncn3c2COC(c2ccccc2)C3)CC1 (configuration not stated)	859 s
Cc1cccc(CNC(=O)CCc2conc2-c2ccccc2)c1	923 s
Cn1cccc1C(=O)Nc1cnn(-c2ncc(N3CCCC3)cn2)c1	789 s
CC1(C)SC2C(NC(=O)[C@H](NC(=O)N3CCNC3=O)c3ccccc3)C(=O)N2C1C(=O)O (some centres not stated)	709 s
CCOC(=O)c1ccc(NC(=O)N2CCCC2c2c(C)noc2C)cc1 (configuration not stated)	801 s
Cc1nc(C)c(-c2ccc(=O)n(CCNC(=O)Cn3cnc4ccccc43)n2)s1	552 s
COCCCNC(=O)[C@@H]1[C@H](c2cc(OC)c(OC)c(OC)c2)c2cc3c(cc2[C@H](O)[C@H]1CO)OCO3	630 s
CC(C)c1cc(N2CCN(C(=O)c3ccc4c(c3)OCO4)CC2)nc2nncn12	610 s
Cc1sc(-c2nnc(C(=O)N3CCCCC3)o2)cc1S(=O)(=O)NC1CC1	824 s
O=S(=O)(c1ccc2c(c1)CCC2)N1CC(c2nc(CCOCc3ccccc3)no2)C1	1140 s
CN(C)c1cc(C(=O)NC2CCCC2)c2ccccc2n1	619 s
COc1ccccc1NS(=O)(=O)c1ccc(-c2nnc(C3CCC3)o2)o1	904 s
CCc1nc(-c2ccc(-c3noc(C(C)NC(=O)c4ccco4)n3)cc2)cs1 (configuration not stated)	980 s
Cc1nn2c(CNS(=O)(=O)c3ccc4c(c3)OCCO4)c(-c3ccccc3)nc2s1	817 s
O=C(Cn1c(SCc2cccc(F)c2)nc2cccnc21)N1CCCC1	647 s
COc1ccc(-c2cc(OC)c3cc(NC(=O)c4cccs4)ccc3n2)cc1	726 s
Cc1ccc(-c2noc(CSc3nc4cc5c(cc4c(=O)n3Cc3ccccc3)OCO5)n2)cc1	1300 s
Cc1ccc(C)c(C(=O)Nc2cccn3nc(C(C)C)nc23)c1	1010 s

Structure (SMILES)	RP-LC retention time
COc1ccc(N2CCN(c3cc(SCC(=O)Nc4ccc(C)c(Cl)c4)ncn3)CC2)cc1	1100 s
CN(C)c1ccc(CNC(=O)C2CCN(c3cc(N4CCCCC4)ncn3)CC2)cc1	559 s
COC(=O)CNC(=O)NCCn1c(C(F)(F)F)nc2ccccc21	653 s
CCC(NC(=O)C1CCN(c2cncnc2N2CCOCC2)CC1)c1ccc(OC)cc1 (configuration not stated)	643 s
COc1ccc(C(=O)Nc2ccc3nc(N4CCN(CCC#N)CC4)cc(C(=O)O)c3c2)cc1	599 s
CNC(=O)c1ccc(-c2nc3cc(NS(=O)(=O)c4ccc5c(c4)CCCC5)ccc3n2C)cc1	685 s
CCOC(=O)c1cccc(N2C=C(C(=O)OC)S(=O)(=O)c3ccccc32)c1	858 s
CSc1ncccc1C(=O)Nc1ccc2c(c1)CCC(=O)N2	638 s
CCOC(=O)CNC(=O)NC(C)C(=O)N1CCc2ccccc21 (configuration not stated)	687 s
O=C(NC1CCCC1)C1c2cccn2CC(=O)N1Cc1ccc(Cl)cc1 (configuration not stated)	905 s
CC1=C(C(=O)N(CC(=O)NCc2ccc(C)cc2)c2ccc(Cl)cc2)SCCO1	1010 s
Cc1ccccc1-c1nc2cnccn2c1NCCC(=O)NCC(C)C	636 s
O=C(NCc1ccc(Br)cc1)C1CCN(c2ncnc3c2oc2ccccc23)CC1	982 s
O=C(c1ccco1)N1CCN(c2ccc(=O)n(-c3ccccc3)n2)CC1	701 s
CCN(CC)C(=O)N1CCCN(S(C)(=O)=O)C(c2ccccc2)CC(=O)NCC1 (configuration not stated)	700 s
CCc1cc(C(=O)Nc2ccc(OC)cc2)nc2cc(-c3ccccn3)nn12	1000 s
Cc1cccc(-c2nc3ccccn3c2NC(=O)Nc2ccccc2F)c1	695 s
c1ccc(-n2nnnc2-c2cccc3ccccc23)cc1	1010 s
O=C(NCCn1nnc2cc(C(=O)N3CCCC3)ccc21)Nc1ccc(F)c(Cl)c1	704 s

Results, then the molecule that gave them:

RP-LC retention time	Structure (SMILES)
646 s	O=C(NCCCN1CCN(Cc2ccccc2)CC1)c1sc2ncccc2c1-n1cccc1
872 s	Cc1ccc(-c2nc(N)n(C(=O)C3CC3)n2)cc1
600 s	COc1nn(C)cc1C(=O)N1CCC(C(=O)Nc2ccc(-n3cnnn3)cc2)CC1
563 s	COc1ccc(Nc2nc(N(C)C)nc3nccnc23)cc1
742 s	CC(C)n1cnc2ccc(-c3noc(-c4ccc(F)cc4)n3)cc21
1080 s	CCOC(=O)c1noc2ncnc(N(Cc3ccccc3)C(C)C)c12
799 s	COC(=O)CCNC(=O)C1c2ccccc2C(=O)N(Cc2ccco2)C12CCCCC2 (configuration not stated)
899 s	CCn1c(=O)sc2cc(S(=O)(=O)N3CCC(C(=O)Nc4ccccc4F)CC3)ccc21
696 s	O=C(c1ccsc1)N1CC(c2nc(CCOCC3CCOCC3)no2)C1
836 s	CC(CNC(=O)CN1C(=O)CCCc2ccccc21)c1ccccc1 (configuration not stated)
1060 s	Cc1csc(-c2cc(S(=O)(=O)NCc3ccc(OC(C)C)cc3)c(C)s2)n1
713 s	COc1ccccc1CNC(=O)[C@@H]1[C@H](c2cc(OC)c(OC)c(OC)c2)c2cc3c(cc2[C@H](O)[C@H]1CO)OCO3
847 s	Cn1cc(-c2ccc(F)cc2)cc1C(=O)NC1CC1
612 s	O=C(Cn1cnc2ccccc2c1=O)N1CCCC1
823 s	Cc1ccc(N2CCC(NC(=O)Nc3ccccc3C)C2=O)cc1 (configuration not stated)
615 s	Cc1ccccc1OCC(=O)NC1CCN(Cc2c(C)noc2C)CC1
800 s	COc1ccc(-c2nc(-c3ccc4nncn4c3)no2)c(OC)c1
733 s	O=C([C@@H]1C[C@H](Oc2ccccc2)CN1C(=O)c1ccoc1)N1CCCC1
792 s	CCn1c(=O)sc2cc(S(=O)(=O)N3CCC(C(=O)NCc4ccco4)CC3)ccc21
878 s	O=C(Cc1cccc2ccccc12)Nc1cc(-c2ccccn2)no1
771 s	CC(C)(C)c1noc(-c2cccnc2-n2cnc(C(=O)NC3CCCCC3)c2)n1
789 s	CC1(C(=O)NCc2ccccc2Cl)Cn2cnc(C(=O)NCc3ccccc3)c2C(=O)N1C1CC1 (configuration not stated)
990 s	Cc1noc(-c2nc(-c3ccccc3F)no2)n1
1070 s	Cc1cccc(OCc2nnc(SCC(=O)Nc3nc(-c4ccccc4)cs3)o2)c1
674 s	CCOc1ccc(C(=O)NCc2nnc3n2CCCC3)cc1OCC

RP-LC retention time	Structure (SMILES)
618 s	COc1ccc2[nH]c(=O)c(CCC(=O)N(C)Cc3cn(C)nc3C)cc2c1
905 s	COC(=O)c1ccccc1NC(=O)CSc1cc(N2CCN(c3ccccc3OC)CC2)ncn1
639 s	O=C(NCc1ccc(F)cc1)N1CCN(CCn2c(C(F)(F)F)nc3cccnc32)CC1
952 s	CCc1nc(-c2csc(S(=O)(=O)N3CCCC(C(=O)NCc4cccs4)C3)c2)no1 (configuration not stated)
1120 s	CCc1ccc(CNC(=O)C2CCN(c3cc(Oc4ccc(CC)cc4)ncn3)CC2)cc1
1220 s	CC(C)(C)c1cc(N2CCN(c3ccccn3)CC2)n2ncc(-c3ccc(Cl)cc3)c2n1
946 s	CC(C)n1cc(S(=O)(=O)Nc2cccc(Cl)c2)c2cccnc21
668 s	Cn1cc(CCN2CCN(S(=O)(=O)c3ccc4c(c3)CCC4)CC2)c2cccnc21
1090 s	N#CC(c1ccccc1)C(C/C(=N\O)c1ccccc1)c1ccccc1 (configuration not stated)
824 s	COCCCNC(=O)C1CCCN(c2ncc(-c3ccc(F)cc3)cn2)C1 (configuration not stated)
934 s	CCc1cccc(NC(=O)N2CCc3c(c(COc4ccccc4)nn3C)C2)c1
766 s	COc1ccc(CCNS(=O)(=O)c2cc3c4c(c2)CCC(=O)N4CCC3)cc1OC
837 s	CC(C)N1C(=O)c2cccnc2Sc2cc(NC(=O)c3cccs3)ccc21
682 s	COc1ccc(-c2nnc(-c3cc(S(=O)(=O)N4CCN(C)CC4)ccc3Cl)o2)cc1
871 s	CCOc1ccc(CC(=O)N2CCC3(CC2)N=C(c2ccc(C)cc2)NO3)cc1
1320 s	CCc1ccc(NC(=O)Cc2c(C)nn(-c3nc(-c4ccc(C)cc4)cs3)c2C)cc1
870 s	COc1ccc(Cl)cc1NC(=O)NC1CCCCC1N1C(=O)CSC1=O (configuration not stated)
900 s	CCCn1cc(CCNS(=O)(=O)Cc2ccc(F)cc2Cl)c2cccnc21
606 s	CCN1C(=O)NC(c2cccc(F)c2)C2=C1CN(CCC(=O)N1CCCC1)C2=O (configuration not stated)
884 s	COc1ccc2[nH]c3c(c2c1)CCN1C(=O)N(c2ccccc2OC)C(=O)C31C (configuration not stated)
841 s	COc1ccc(N2C(=O)C3N=NN(Cc4nc(-c5ccc(OC(C)C)cc5)no4)C3C2=O)cc1OC (configuration not stated)
1020 s	Cc1ccc(C)c(NC(=O)Cn2cccc2-c2nnc(-c3ccccc3)o2)c1
553 s	O=C([C@@H]1C[C@H](Oc2cccnc2)CN1C(=O)c1ccco1)N1CCCC1
820 s	COc1ccc2c(c1)[C@H]1OCCC[C@H]1C(c1ccc(C(=O)O)cc1)N2 (some centres not stated)
